The source of these data is patent US11384060B2, “Amide compounds and use thereof” (ALPHALA CO., LTD., priority 2017, dated 2022).

Where two headings read alike, the source gives them in different places.

One test addresses T1, glucagon receptor (GCGR) (Homo sapiens, UniProt P47871).
T1 construct: expressed in transfected cells; host or cells: CHO-K1 cells overexpressing GCGR (membrane fractions)
Nature of the test: I125-glucagon binding assay (competition, GCGR membrane fractions). Summed up:
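Membranes from CHO-K1 cells overexpressing GCGR, 7.5 μg/well in 50 mM Tris pH 7.4 with 0.5% BSA, were preincubated 5 min with serially diluted compounds, then given 0.0625 nM final I^125-glucagon for 30 min at 25° C. Bound label was filtered on PEI-coated GF/B and counted; IC50 by non-linear regression.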

Test [1] deals with T2, glucagon receptor (GCGR) overexpressed CHO-K1 cells or human primary hepatocytes (Homo sapiens, UniProt P47871).
T2 construct: expressed in transfected cells; host or cells: GCGR overexpressed CHO-K1 cells or human primary hepatocytes (endogenous receptor)
T2 sequence (P47871 26-477): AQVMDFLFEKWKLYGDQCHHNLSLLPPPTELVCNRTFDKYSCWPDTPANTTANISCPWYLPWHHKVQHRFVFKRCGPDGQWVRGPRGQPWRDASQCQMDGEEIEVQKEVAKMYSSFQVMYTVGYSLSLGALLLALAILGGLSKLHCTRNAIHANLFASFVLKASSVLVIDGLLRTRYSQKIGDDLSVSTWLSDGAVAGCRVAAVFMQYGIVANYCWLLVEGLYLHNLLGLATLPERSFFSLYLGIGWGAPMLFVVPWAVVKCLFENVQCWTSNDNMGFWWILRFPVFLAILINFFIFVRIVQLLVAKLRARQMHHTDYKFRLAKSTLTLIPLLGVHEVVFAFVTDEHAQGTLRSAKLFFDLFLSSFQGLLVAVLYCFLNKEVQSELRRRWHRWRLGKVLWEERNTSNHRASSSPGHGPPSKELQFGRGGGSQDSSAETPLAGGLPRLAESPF
Nature of the test: Glucagon cAMP inhibition assay (Cisbio cAMP Dynamic 2 HTRF). It is filed as cell-based. The method in brief: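 GCGR-overexpressing CHO-K1 cells or human primary hepatocytes in HBSS with 0.1% BSA and 800 nM IBMX, pre-incubated 30 min with serially diluted compounds (1% DMSO final), then stimulated 30 min at room temperature with glucagon at its EC50. cAMP measured by HTRF after 60 min lysis; IC50 by non-linear regression.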

Setting [2] is: competition with I125-glucagon 0.0625 nM, membrane fractions of GCGR overexpressed CHO-K1 cells.
The mark [3] stands for this setting: inhibition of glucagon (EC50 concentration) induced cAMP production.

T1 sequence (P47871 26-477): as above

Molecule `CC[C@H](C)[C@H](Nc1ccc(C(=O)NCCC(=O)O)cc1)C(=O)Nc1ccc2cc(OC)ccc2c1` [Compound 24-8, 3-(4-(((2S,3S)-1-((6-methoxynaphthalen-2-yl)amino)-3-methyl-1-oxopentan-2-yl)amino)benzamido)propanoic Acid] gave an IC50 at glucagon receptor (GCGR) of 1.03 µM. Further, in test [1] (uM), the “IC50 cAMP” value was >10 µM.
`CC(C)C[C@@H](COc1ccc(-c2ccc(C(F)(F)F)cc2Cl)cn1)Nc1ccc(C(=O)NCCC(=O)O)cc1` [Compound 15-10, (S)-3-(4-((1-((5-(2-chloro-4-(trifluoromethyl)phenyl)pyridin-2-yl)oxy)-4-methylpentan-2-yl)amino)benzamido)propanoic Acid] returned an IC50 on glucagon receptor (GCGR) of 0.08 µM. Also, the “IC50 cAMP” value in test [1] amounted to 0.1984 µM.
Take `CC(C)COC[C@@H](Cc1ccc(-c2ccc(C(F)(F)F)cc2)cc1)Nc1ccc(C(=O)NCCC(=O)O)cc1` [Compound 19-18]: on glucagon receptor (GCGR), the concentration for half-maximal inhibition (IC50) stood at 0.688 µM. The “IC50 cAMP” value in test [1] is 0.9168 µM.
On glucagon receptor (GCGR) (setting [2]), `CC(C)C[C@@H](COc1ccc(-c2cc3ccccc3o2)c(F)c1)Nc1ccc(C(=O)NCCC(=O)O)cc1` [Compound 8-20, (S)-3-(4-((1-(4-(benzofuran-2-yl)-3-fluorophenoxy)-4-methylpentan-2-yl)amino)benzamido)propanoic Acid] gave a half-inhibitory concentration (IC50) of 0.083 µM. Moreover, in test [1] (setting [3]), the “IC50 cAMP” value was 0.234 µM.
`CC[C@H](C)[C@@H](COc1ccc(-c2ccc(Cl)cc2Cl)c(C)n1)Nc1ccc(C(=O)NCCC(=O)O)cc1` [Compound 18-5, 3-(4-(((2S,3S)-1-((5-(2,4-dichlorophenyl)-6-methylpyridin-2-yl)oxy)-3-methylpentan-2-yl)amino)benzamido)propanoic Acid] showed an IC50 on glucagon receptor (GCGR) of 0.165 µM. In addition, the “IC50 cAMP” value in test [1] stood at 0.151 µM.
For `CCOC(=O)CCNC(=O)c1ccc(N[C@H](C(=O)Nc2ccc3cc(OC)ccc3c2)[C@@H](C)CC)cc1` [Compound 24-7, Ethyl 3-(4-(((2S,3S)-1-((6-methoxynaphthalen-2-yl)amino)-3-methyl-1-oxopentan-2-yl)amino)benzamido)propanoate], in that order: 11.4 µM and 0.217 µM.
In turn, `COc1cc(OC[C@@H](Nc2ccc(C(=O)NCCC(=O)O)cc2)C(C)C)ccc1-c1ccc(C(F)(F)F)cc1Cl` [Compound 13-6, (S)-3-(4-((1-((2′-chloro-2-methoxy-4′-(trifluoromethyl)-[1,1′-biphenyl]-4-yl)oxy)-3-methylbutan-2-yl)amino)benzamido)propanoic Acid] displayed a half-inhibitory concentration (IC50) at glucagon receptor (GCGR) (setting [2]) of 0.089 µM. For the same molecule, the “IC50 cAMP” value in test [1] (setting [3]) was found to be 0.097 µM.
Molecule `CC(C)[C@@H](COc1ccc(-c2ccc(C(F)(F)F)cc2)cc1)Nc1ccc(C(=O)NCCC(=O)O)nc1` [Compound 9-3, (S)-3-(5-((3-methyl-1-((4′-(trifluoromethyl)-[1,1′-biphenyl]-4-yl)oxy)butan-2-yl)amino)picolinamido)propanoic Acid] yielded a half-maximal inhibitory concentration (IC50) at glucagon receptor (GCGR) (setting [2]) of 0.12 µM. Besides, the “IC50 cAMP” value in test [1] (setting [3]) stood at 0.487 µM.
On glucagon receptor (GCGR) (setting [2]), `CC(C)[C@@H](COc1ccc(-c2nc3ccccc3s2)cc1)Nc1ccc(C(=O)NCCC(=O)O)cc1` [Compound 1-32, (S)-3-(4-((1-(4-(benzo[d]thiazol-2-yl)phenoxy)-3-methylbutan-2-yl)amino)benzamido)propanoic Acid] displayed a half-inhibitory concentration (IC50) of 0.057 µM. Further, the “IC50 cAMP” value in test [1] (setting [3]) was 0.152 µM.
For `CC(C)[C@@H](COc1cnc(-c2ccc(Cl)cc2Cl)nc1)Nc1ccc(C(=O)NCCC(=O)O)cc1` [Compound 12-6, (S)-3-(4-((1-((2-(2,4-dichlorophenyl)pyrimidin-5-yl)oxy)-3-methylbutan-2-yl)amino)benzamido)propanoic Acid], in that order: 1.67 µM and >30 µM.
In the case of `CC(C)C[C@@H](COc1ccc(-c2ccc(Cl)cc2Cl)c(F)c1)Nc1ccc(C(=O)NCCC(=O)O)cc1` [Compound 8-19, (S)-3-(4-((1-((2′,4′-dichloro-2-fluoro-[1,1′-biphenyl]-4-yl)oxy)-4-methylpentan-2-yl)amino)benzamido)propanoic Acid], the IC50 on glucagon receptor (GCGR) (setting [2]) came to 0.101 µM. In test [1] (setting [3]), the “IC50 cAMP” value was 0.182 µM.
For `CCOC(=O)CCNC(=O)c1ccc(N[C@H](COc2ccc(-c3nc4ccccc4o3)cc2)C(C)C)cc1` [Compound 1-47, Ethyl (S)-3-(4-((1-(4-(benzo[d]oxazol-2-yl)phenoxy)-3-methylbutan-2-yl)amino)benzamido)propanoate], at glucagon receptor (GCGR) (setting [2]), the half-inhibitory concentration (IC50) was > 30 µM. At glucagon receptor (GCGR) (compound at the concentration of 30 μM, read-out: percentage of inhibition (binding)), the inhibition at 30 µM was found to be 56%. Moreover, the “IC50 cAMP” value in test [1] (setting [3]) amounted to 0.17 µM.
`CCOC(=O)CCNC(=O)c1ccc(N[C@@H](Cc2ccccc2)C(=O)Nc2ccc(C(F)(F)F)cc2)cc1` [Compound 24-5, Ethyl (S)-3-(4-((1-oxo-3-phenyl-1-((4-(trifluoromethyl)phenyl)amino)propan-2-yl)amino)benzamido)propanoate]: at glucagon receptor (GCGR) (uM), the IC50 was > 10 µM. In addition, the “IC50 cAMP” value in test [1] was found to be 5.8 µM.
In turn, `CC[C@H](C)[C@@H](COc1ccc(-c2cc3ccccc3o2)nc1)Nc1ccc(C(=O)NCCC(=O)O)cc1` [Compound 10-13, 3-(4-(((2S,3S)-1-((6-(benzofuran-2-yl)pyridin-3-yl)oxy)-3-methylpentan-2-yl)amino)benzamido)propanoic Acid] showed an IC50 at glucagon receptor (GCGR) (setting [2]) of 0.224 µM. For the same molecule, the “IC50 cAMP” value in test [1] (setting [3]) was found to be 0.8639 µM.
Regarding `CC[C@H](C)[C@@H](COc1cc(C)c(-c2ccc(Cl)cc2Cl)c(C)c1)Nc1ccc(C(=O)NCCC(=O)O)cc1` [Compound 2-9, 3-(4-(((2S,3S)-1-((2′,4′-dichloro-2,6-dimethyl-[1,1′-biphenyl]-4-yl)oxy)-3-methylpentan-2-yl)amino)benzamido)propanoic Acid], the IC50 on glucagon receptor (GCGR) (setting [2]) is 0.06 µM. In test [1] (setting [3]), the “IC50 cAMP” value was 0.4476 µM.
For `CCCC[C@@H](COc1ccc(-c2ccc(C(C)(C)C)cc2)cc1)Nc1ccc(C(=O)NCCC(=O)O)cc1` [Compound 1-11, (S)-3-(4-((1-((4′-(tert-butyl)-[1,1′-biphenyl]-4-yl)oxy)hexan-2-yl)amino)benzamido)propanoic Acid], in that order: 0.15 µM and 0.3203 µM.
In turn, `O=C(O)CCNC(=O)c1ccc(N[C@H](COc2ccc(C(F)(F)F)cn2)c2ccc(-c3ccc(C(F)(F)F)cc3)cc2)cc1` [Compound 15-27, (S)-3-(4-((1-(4′-(trifluoromethyl)-[1,1′-biphenyl]-4-yl)-2-((5-(trifluoromethyl)pyridin-2-yl)oxy)ethyl)amino)benzamido)propanoic Acid] came in with a 50% inhibitory concentration (IC50) at glucagon receptor (GCGR) of 0.101 µM. Also, in test [1], the “IC50 cAMP” value amounted to 0.316 µM.
`Cc1cc(OC[C@@H](Cc2ccccc2)Nc2ccc(C(=O)NCCC(=O)O)cc2)cc(C)c1-c1ccc(OC(F)(F)F)cc1` [Compound 2-2] gave an IC50 on glucagon receptor (GCGR) (setting [2]) of 0.378 µM. For the same molecule, in test [1] (setting [3]), the “IC50 cAMP” value came to 0.4748 µM.
In the case of `CC[C@H](C)[C@@H](COc1ccc(-c2nnc(-c3ccccc3)o2)cc1)Nc1ccc(C(=O)NCCC(=O)O)cn1` [Compound 4-5, 3-(6-(((2S,3S)-3-methyl-1-(4-(5-phenyl-1,3,4-oxadiazol-2-yl)phenoxy)pentan-2-yl)amino)nicotinamido)propanoic Acid], at glucagon receptor (GCGR) (setting [2]), the IC50 worked out at 0.708 µM. For the same molecule, in test [1] (setting [3]), the “IC50 cAMP” value was 11.2 µM.
For `CC(C)[C@@H](COc1ccc(-c2ccc(N(C)C)cc2)cc1)Nc1ccc(C(=O)NCCC(=O)O)cc1` [Compound 1-12, (S)-3-(4-((1-((4′-(dimethylamino)-[1,1′-biphenyl]-4-yl)oxy)-3-methylbutan-2-yl)amino)benzamido)propanoic Acid], in that order: 0.224 µM and 0.4143 µM.
For `CC(C)C[C@@H](COc1cnc(-c2cc3ccccc3o2)nc1)Nc1ccc(C(=O)NCCC(=O)O)cc1` [Compound 12-3, (S)-3-(4-((1-((2-(benzofuran-2-yl)pyrimidin-5-yl)oxy)-4-methylpentan-2-yl)amino)benzamido)propanoic Acid], in that order: 0.608 µM and >30 µM.
Take `CC(C)[C@@H](COc1ccc(-c2ccc(C(F)(F)F)cc2F)cc1)Nc1ccc(C(=O)NCCC(=O)O)cc1` [Compound 1-25]: at glucagon receptor (GCGR) (setting [2]), the IC50 was 0.044 µM. The “IC50 cAMP” value in test [1] (setting [3]) stood at 0.0904 µM.
Turning to `CC(C)COC[C@@H](Cc1ccc(-c2cc3ccccc3o2)cc1)Nc1ccc(C(=O)NCCC(=O)O)cc1` [Compound 19-21, (R)-3-(4-((1-(4-(benzofuran-2-yl)phenyl)-3-isobutoxypropan-2-yl)amino)benzamido)propanoic Acid], the IC50 at glucagon receptor (GCGR) turned out to be 0.269 µM. The “IC50 cAMP” value in test [1] is 0.4373 µM.
With `CC(C)C[C@@H](COc1ccc(-c2ccc(C(F)(F)F)nn2)cn1)Nc1ccc(C(=O)NCCC(=O)O)cc1` [Compound 15-19, (S)-3-(4-((4-methyl-1-((5-(6-(trifluoromethyl)pyridazin-3-yl)pyridin-2-yl)oxy)pentan-2-yl)amino)benzamido)propanoic Acid], on glucagon receptor (GCGR), the IC50 was determined as 2.99 µM. Further, the “IC50 cAMP” value in test [1] was >30 µM.
At glucagon receptor (GCGR) (setting [2]), `CC(C)[C@@H](COc1ccc(-c2cc3ccccc3o2)c(Cl)c1)Nc1ccc(C(=O)NCCC(=O)O)cc1` [Compound 3-7, (S)-3-(4-((1-(4-(benzofuran-2-yl)-3-chlorophenoxy)-3-methylbutan-2-yl)amino)benzamido)propanoic Acid] displayed an IC50 of 0.103 µM. The “IC50 cAMP” value in test [1] (setting [3]) worked out at 0.3635 µM.
